Reference: patent US11834446B2, “Methods and compositions useful in treating cancer and reducing Wnt mediated effects in a cell” (StemSynergy Therapeutics, Inc., priority 2009, dated 2023)

System: Wnt reporter (TCF/LEF1 promoter) in HEK STF293 cells
Assay: HEK STF293 Wnt reporter (luciferase) assay
Assay type: cell-based
Conditions: Homo sapiens, STF/293, Wnt3a-conditioned media, Steady Glo normalized to Cell Titer
Protocol: Screening with STF293 and SW480STF. HEK STF293 cells are seeded at approximately 25,000-30,000 cells/well in a 96-well (100 uL volume). On the first day, Wnt3a-conditioned media (1:1) will be added along with diluted compounds (1:100). For example, for 100 ul of STF293 cells, 100 ul of Wnt3a-conditioned media and 2 ul of drug will be added to each well. The final concentrations should therefore be 100 μM, 30 μM, 10 μM, 3 μM, 1 μM, 300 nM, 100 nM, 30 nM, 10 nM, 3 nM, 1 nM, and 0.3 nM. On the second day, the media is removed and 75 ul of Passive Lysis Buffer (Promega) is added to each well. The plate will be shaken at 130 rpm for 15 minutes. For the Steady Glo assay, 45 ul of the lysis is removed and added to a white 96-well plate containing 45 uL/well of Steady Glo solution (Promega). For the Cell Titer assay, 25 ul of the lysis is transferred to a white 96-well plate containing 25 ul/well of Cell Titer solution (Promega). Both Steady Glo and Cell Titer assays will be read with a luminescence plate reader. When determining EC50, the Steady Glo values will be divided by the Cell Titer values to normalize for cell number and the resulting values plotted in a dose-response curve.
Experimental. All compounds were tested using the human cell line HEK STF293. This cell line carries a Wnt reporter (TCF/LEF1 promoter), which drives expression of the firefly luciferase protein. The level of Wnt activity is directly correlated with the level of luciferase activity (determined using a simple assay). Compounds that inhibit Wnt signaling by reducing luciferase activity in these two cell lines are further tested biochemically.
Compounds were prepared as 10 mM stocks for each compound in DMSO. Dilutions were prepared in a 96-well plate in DMSO. The stock dilutions are as follows: 10 mM, 1 mM, […]. Plates were sealed and stored at −20 C.
HEK STF293 cells were seeded at approximately 25,000-30,000 cells/well in a 96-well (100 uL volume). On the first day, Wnt3a-conditioned media (1:1) were added along with diluted compounds (1:100). For example, for 100 ul of STF293 cells, 100 ul of Wnt3a-conditioned media and 2 ul of drug was added to each well. The final concentrations should therefore be 100 uM, 10 uM, 1 uM, 100 nM, 10 nM, and 1 nM. On the second day, the media is removed and 75 ul of Passive Lysis Buffer (Promega) is added to each well. The plate is shaken at 130 rpm for 15 minutes. For the Steady Glo assay, 45 ul of the lysis is removed and added to a white 96-well plate containing 45 uL/well of Steady Glo solution (Promega). For the Cell Titer assay, 25 ul of the lysis is transferred to a white 96-well plate containing 25 ul/well of Cell Titer solution (Promega). Both Steady Glo and Cell Titer assays were read with a luminescence plate reader. When determining EC50, the Steady Glo values were divided by the Cell Titer values to normalize for cell number.

## Cc1ccc(C)c(NS(=O)(=O)c2ccc(NC(=O)c3n[nH]c4c3CCc3ccccc3-4)cc2)c1
  EC50: > 0.1 µM

## O=C(Nc1nc(-c2ccccn2)cs1)c1ccc(S(=O)(=O)N2CCCc3ccccc32)cc1
  EC50: ≤ 0.1 µM

## COc1ccccc1-c1cc(C(=O)Nc2c(C)nn(Cc3ccc(F)cc3)c2C)no1
  EC50: > 0.1 µM

## NC(=O)c1ccccc1NC(=O)c1ccc(S(=O)(=O)Nc2ccccc2)cc1
  EC50: > 0.1 µM

## Cc1sc(NC(=O)c2ccc(S(=O)(=O)N3CCc4ccccc43)cc2)nc1-c1ccccc1
  EC50: > 0.1 µM

## COc1cc2nc(NC(=O)c3ccc(S(=O)(=O)N(C)c4ccccc4)cc3)sc2cc1OC
  EC50: > 0.1 µM

## Cc1ccc(NS(=O)(=O)c2ccc(NC(=O)c3n[nH]c4c3CCc3ccccc3-4)cc2)cc1
  EC50: > 0.1 µM

## Cc1nn(Cc2ccccc2)c(C)c1NC(=O)c1cc(-c2ccc(Br)cc2)on1
  EC50: ≤ 0.1 µM

## Cc1nn(Cc2ccccc2)c(C)c1NC(=O)c1cc2n(n1)C(C(F)(F)F)CC(c1ccccc1)N2 (stereo not drawn)
  EC50: ≤ 0.1 µM

## COc1cc2nc(NC(=O)c3ccc(S(=O)(=O)N4CCc5ccccc54)cc3)sc2cc1OC
  EC50: > 0.1 µM

## Cc1nn(Cc2ccc(F)cc2)c(C)c1NC(=O)c1cc(-c2ccc(F)cc2)on1
  EC50: > 0.1 µM

## O=C(Nc1ccc(F)cc1)c1ccc(S(=O)(=O)N2CCc3ccccc32)cc1
  EC50: > 0.1 µM
